Assays:
Assay in all cases: concentration in plasma after dosing
Rat [1] = details: dosed: Dibromoacetic acid, 10 mg/kg, iv, Male, F344
Rat [2] = details: dosed: Dibromoacetic acid, 25 mg/kg, oral, Male, Harlan Sprague Dawley
Rat [3] = details: dosed: Dibromoacetic acid, 25 mg/kg, oral, Male, Harlan Sprague Dawley; remark: listed apart in the source
Rat [4] = details: 40 min; dosed: Dibromoacetic acid; 10 mg/kg; iv; Male; F344
Rat [5] = details: 5 min; dosed: Dibromoacetic acid; 50 mg/kg; oral; Female; Harlan Sprague Dawley
Rat [6] = details: dosed: Dibromoacetic acid, 110 mg/kg, iv, Female, Harlan Sprague-Dawley
Rat [7] = details: 20 min; dosed: Dibromoacetic acid; 10 mg/kg; iv; Male; F344
Rat [8] = details: dosed: Dibromoacetic acid, 10 mg/kg, iv, Male, F344; remark: listed apart in the source
Rat [9] = details: dosed: Dibromoacetic acid, 110 mg/kg, iv, Female, Harlan Sprague-Dawley; remark: listed apart in the source
Rat [10] = details: 0.5 h; dosed: Dibromoacetic acid; 25 mg/kg; oral; Male; Harlan Sprague Dawley
Rat [11] = details: dosed: Dibromoacetic acid, 25 mg/kg, oral, Male, Harlan Sprague Dawley; remark: listed apart in the source
Rat [12] = details: 0.5 h; dosed: Dibromoacetic acid; 25 mg/kg; oral; Male; Harlan Sprague Dawley; remark: listed apart in the source
Rat [13] = details: dosed: Dibromoacetic acid, 10 mg/kg, iv, Male, F344; remark: listed apart in the source
Rat [14] = details: 10 min; dosed: Dibromoacetic acid; 10 mg/kg; iv; Male; F344
Rat [15] = details: dosed: Dibromoacetic acid, 50 mg/kg, oral, Female, Harlan Sprague Dawley
Rat [16] = details: 0.5 h; dosed: Dibromoacetic acid; 25 mg/kg; oral; Male; Harlan Sprague Dawley; remark: listed apart in the source
Rat [17] = details: dosed: Dibromoacetic acid, 25 mg/kg, oral, Female, Harlan Sprague Dawley
Rat [18] = details: dosed: Dibromoacetic acid, 25 mg/kg, oral, Male, Harlan Sprague Dawley; remark: listed apart in the source
Rat [19] = details: dosed: Dibromoacetic acid, 25 mg/kg, oral, Male, Harlan Sprague Dawley; remark: listed apart in the source
Rat [20] = details: dosed: Dibromoacetic acid, 110 mg/kg, iv, Female, Harlan Sprague-Dawley; remark: listed apart in the source
Rat [21] = details: 5 min; dosed: Dibromoacetic acid; 25 mg/kg; oral; Male; Harlan Sprague Dawley
Rat [22] = details: 0.5 h; dosed: Dibromoacetic acid; 25 mg/kg; oral; Male; Harlan Sprague Dawley; remark: listed apart in the source
Rat [23] = details: dosed: Dibromoacetic acid, 25 mg/kg, oral, Male, Harlan Sprague Dawley; remark: listed apart in the source
Rat [24] = details: dosed: Dibromoacetic acid
Rat [25] = details: dosed: Dibromoacetic acid, 25 mg/kg, oral, Male, Harlan Sprague Dawley; remark: listed apart in the source
Rat [26] = details: dosed: Dibromoacetic acid, 25 mg/kg, oral, Male, Harlan Sprague Dawley; remark: listed apart in the source
Rat [27] = details: 5 min; dosed: Dibromoacetic acid; 25 mg/kg; oral; Male; Harlan Sprague Dawley; remark: listed apart in the source
Rat [28] = details: 40 min; dosed: Dibromoacetic acid; 10 mg/kg; iv; Male; F344; remark: listed apart in the source
Rat [29] = details: dosed: Dibromoacetic acid, 10 mg/kg, iv, Male, F344; remark: listed apart in the source
Rat [30] = details: 5 min; dosed: Dibromoacetic acid; 50 mg/kg; oral; Female; Harlan Sprague Dawley; remark: listed apart in the source
Rat [31] = details: dosed: Dibromoacetic acid, 25 mg/kg, oral, Male, Harlan Sprague Dawley; remark: listed apart in the source
Rat [32] = details: dosed: Dibromoacetic acid, 25 mg/kg, oral, Male, Harlan Sprague Dawley; remark: listed apart in the source
Rat [33] = details: dosed: Dibromoacetic acid, 25 mg/kg, oral, Male, Harlan Sprague Dawley; remark: listed apart in the source
Rat [34] = details: dosed: Dibromoacetic acid, 25 mg/kg, oral, Male, Harlan Sprague Dawley; remark: listed apart in the source
Rat [35] = details: 20 min; dosed: Dibromoacetic acid; 10 mg/kg; iv; Male; F344; remark: listed apart in the source
Rat [36] = details: 5 min; dosed: Dibromoacetic acid; 25 mg/kg; oral; Male; Harlan Sprague Dawley; remark: listed apart in the source
Rat [37] = details: 5 min; dosed: Dibromoacetic acid; 25 mg/kg; oral; Male; Harlan Sprague Dawley; remark: listed apart in the source
Rat [38] = details: dosed: Dibromoacetic acid, 25 mg/kg, oral, Male, Harlan Sprague Dawley; remark: listed apart in the source
Rat [39] = details: dosed: Dibromoacetic acid, 25 mg/kg, oral, Male, Harlan Sprague Dawley; remark: listed apart in the source
Rat [40] = details: 5 min; dosed: Dibromoacetic acid; 25 mg/kg; oral; Male; Harlan Sprague Dawley; remark: listed apart in the source
Rat [41] = details: dosed: Dibromoacetic acid, 25 mg/kg, oral, Male, Harlan Sprague Dawley; remark: listed apart in the source
Rat [42] = details: 10 min; dosed: Dibromoacetic acid; 10 mg/kg; iv; Male; F344; remark: listed apart in the source
Rat [43] = details: dosed: Dibromoacetic acid, 25 mg/kg, oral, Male, Harlan Sprague Dawley; remark: listed apart in the source
Rat [44] = details: dosed: Dibromoacetic acid, 25 mg/kg, oral, Male, Harlan Sprague Dawley; remark: listed apart in the source
Rat [45] = details: dosed: Dibromoacetic acid, 25 mg/kg, oral, Female, Harlan Sprague Dawley; remark: listed apart in the source

O=C(O)C(Br)Br [Dibromoacetic acid]
Details	concentration in plasma [ng/mL]
Rat [1], 1 h	208
Rat [1], 2 min	28100
Rat [2], 1 h	8050
Rat [2], 2 h	1280
Rat [3], 0.5 h	15000
Rat [3], 6 h	466
Rat [6], 1.5 h	17600
Rat [6], 2 h	5370
Rat [8], 1 h	186
Rat [8], 2 min	28800
Rat [9], 1.5 h	20900
Rat [9], 3 h	472
Rat [11], 0.75 h	10300
Rat [11], 4 h	772
Rat [13], 1.25 h	101
Rat [13], 5 min	14500
Rat [15], 3 h	2050
Rat [15], 10 min	9980
Rat [17], 1 h	8120
Rat [17], 2 h	887
Rat [18], 1.5 h	1560
Rat [18], 20 min	24200
Rat [19], 1 h	8770
Rat [19], 2 h	1770
Rat [20], 2 h	4660
Rat [20], 3 h	459
Rat [23], 0.75 h	8790
Rat [23], 4 h	592
Rat [25], 3 h	1620
Rat [25], 10 min	1880
Rat [26], 3 h	476
Rat [26], 10 min	6890
Rat [29], 1.25 h	301
Rat [29], 5 min	12000
Rat [31], 1.5 h	1550
Rat [31], 20 min	13500
Rat [32], 3 h	646
Rat [32], 10 min	5770
Rat [33], 1.5 h	1460
Rat [33], 20 min	13200
Rat [34], 3 h	1720
Rat [34], 10 min	853
Rat [38], 3 h	129
Rat [38], 10 min	12100
Rat [39], 1.5 h	3340
Rat [39], 20 min	10700
Rat [41], 1.5 h	2030
Rat [41], 20 min	20900
Rat [43], 0.75 h	10200
Rat [43], 4 h	1540
Rat [44], 0.75 h	6410
Rat [44], 4 h	772
Rat [45], 1 h	8860
Rat [45], 2 h	1240

Details	concentration in plasma [ng/mL]
Rat [4]	607
Rat [5]	2800
Rat [7]	1890
Rat [10]	8900
Rat [12]	13500
Rat [14]	7190
Rat [16]	7630
Rat [21]	238
Rat [22]	12600
Rat [27]	3390
Rat [28]	498
Rat [30]	4030
Rat [35]	2540
Rat [36]	1630
Rat [37]	2210
Rat [40]	294
Rat [42]	6230

concentration in plasma [ng/mL], Rat [24]
Details	Female	Male
0.5 h, 25 mg/kg, oral, Harlan Sprague Dawley	–	10800
0.75 h, 25 mg/kg, oral, Harlan Sprague Dawley	8910	11500
1 h, 10 mg/kg, iv, F344	–	262
1 h, 25 mg/kg, oral, Harlan Sprague Dawley	6860	8310
1.25 h, 10 mg/kg, iv, F344	–	97.1
1.5 h, 10 mg/kg, iv, F344	–	175
1.5 h, 25 mg/kg, oral, Harlan Sprague Dawley	–	2000
1.5 h, 110 mg/kg, iv, Harlan Sprague-Dawley	21600	–
2 h, 25 mg/kg, oral, Harlan Sprague Dawley	1460	1850
2 h, 110 mg/kg, iv, Harlan Sprague-Dawley	4710	–
2 min, 10 mg/kg, iv, F344	–	31000
3 h, 25 mg/kg, oral, Harlan Sprague Dawley	–	751
3 h, 50 mg/kg, oral, Harlan Sprague Dawley	1930	–
3 h, 110 mg/kg, iv, Harlan Sprague-Dawley	405	–
4 h, 25 mg/kg, oral, Harlan Sprague Dawley	966	106
5 min, 10 mg/kg, iv, F344	–	11500
5 min, 25 mg/kg, oral, Harlan Sprague Dawley	–	411
5 min, 50 mg/kg, oral, Harlan Sprague Dawley	8050	–
6 h, 25 mg/kg, oral, Harlan Sprague Dawley	–	109
10 min, 10 mg/kg, iv, F344	–	5230
10 min, 25 mg/kg, oral, Harlan Sprague Dawley	–	4010
10 min, 50 mg/kg, oral, Harlan Sprague Dawley	13500	–
20 min, 10 mg/kg, iv, F344	–	2810
20 min, 25 mg/kg, oral, Harlan Sprague Dawley	–	17200
40 min, 10 mg/kg, iv, F344	–	544

Source: EPA's CvTdb concentration-time database
